From BigSolDB 2.1

FC(F)(F)c1cccnc1Cl
solubility (mole fraction)
Conditions	263.15 K	268.15 K	273.15 K	278.15 K	283.15 K	288.15 K	293.15 K	298.15 K	303.15 K
in ethanol	0.0807	0.112	0.141	0.186	0.262	0.363	0.476	0.621	0.831
in ethyl acetate	0.306	0.35	0.399	0.455	0.508	0.583	0.652	0.739	0.824
in n-butanol	0.0947	0.118	0.14	0.183	0.229	0.284	0.345	0.421	0.51
